Measured values taken from ChEMBL document CHEMBL2203104, “Recent advances in antitubercular natural products” (Eur J Med Chem, 2012).
In brackets after ≈: the same amount, converted by molar mass.

system: Mycobacterium tuberculosis; assay: Antimycobacterial activity against Mycobacterium tuberculosis H37Rv; type: functional; settings: Mycobacterium tuberculosis, H37Rv; read-out: MIC

SMILES | MIC
CC1=C(C)C(=O)C(CC[C@](C)(O)CCC[C@H](C)CCC[C@H](C)CCCC(C)C)=C(C)C1=O | 25 µg/mL
O=C1c2c(O)ccnc2-c2nccc3c2c1nc1ccccc13 | 42 µM
CC(C)=CCc1c(O)cc(O)c(C(=O)/C=C/c2ccccc2)c1O | 0.05 µg/mL
CC(C)=CCc1c(O)ccc(C(=O)/C=C/c2cc(O)c3c(c2)C=CC(C)(C)O3)c1O | 30 µg/mL
CC1(C)Oc2cc(O)c(C(=O)/C=C/c3ccccc3)c(O)c2CC1O (configuration not stated) | 0.05 µg/mL
CCOC(=O)/C=C/COc1ccc(/C=C/C(=O)/C=C(O)/C=C/c2ccc(OC/C=C/C(=O)OCC)c(OC)c2)cc1 | 7.18 µg/mL
COC1=CC(=O)c2cccc(O)c2C1=O | 3.12 µg/mL
CC(=O)[C@]1(O)C(C)=C(C)C(=O)[C@@]12CC[C@](C)(CCC[C@H](C)CCC[C@H](C)CCCC(C)C)O2 | 30 µg/mL
CC(=O)[C@]1(O)C(C)=C(C)C(=O)[C@@]12CC[C@H](CCC[C@H](C)CCC[C@H](C)CCCC(C)C)O2 | 50 µg/mL
COc1ccc(CC(O)C(O)Cc2ccccc2)cc1 (configuration not stated) | 30 µg/mL
CC(C)C1=C(O)C(=O)C2=C(C1=O)[C@H](O)[C@@H](O)[C@H]1C(C)(C)CCC[C@]21C | 25 µg/mL
CC(=O)O[C@H]1C2=C(C(=O)C(O)=C(C(C)C)C2=O)[C@@]2(C)CCCC(C)(C)[C@@H]2[C@@H]1O | 25 µg/mL
C=C(C)C(CC[C@@H](C)[C@H]1CC[C@@]2(C)[C@@H]3CC[C@H]4C(C)(C)[C@@H](O)CC[C@@]45C[C@@]35CC[C@]12C)OO (some centres not stated) | 25 µg/mL
C[C@H](C/C=C/C(C)(C)OO)[C@H]1CC[C@@]2(C)[C@@H]3CC[C@H]4C(C)(C)[C@@H](O)CC[C@@]45C[C@@]35CC[C@]12C | 25 µg/mL
CC(C)C1=C(O)C(=O)C2=C(C=C[C@H]3C(C)(C)CCC[C@]23C)C1=O | 25 µg/mL
COc1cc(-c2ccccc2)nc2ccccc12 | 16 µg/mL
COC1=CC(=O)c2c(O)cccc2C1=O | 30 µg/mL
C[C@@H]1C[C@H](C)C(=O)/C=C/C2[C@@H](O)C3OC4=C(C(=O)O[C@@]42C[C@H]3C)C1=O (single isomer, unassigned; (-)) | 7.2 µM
C=C[C@]1(C)C2=C3c4c([nH]c5cccc(c45)C(C)(C)[C@H]3C[C@H]1Cl)C(C)(C)C(C#N)=C2 [AMBIGUINE G NITRILE] | 53.7 µM
O=C(O)CCCCCCCCCC(=O)C1=CCCC1 [ANTHELMINTHICINS A] | 5.54 µM
O=C(CCCCCCCC[C@H]1C=CCC1)OCC(O)CO (some centres not stated) [ANTHELMINTHICINS B] | 16.7 µM
CC[C@H](CC[C@@H](C)[C@H]1CC[C@H]2[C@@H]3CC=C4CC(=O)CC[C@]4(C)[C@H]3CC[C@]12C)C(C)C [BETA-SITOSTENONE] | 39.5 µM
O=C(O)CCCCCCCCCCCC[C@@H]1C=CCC1 [CHAULMOOGRIC ACID] | 16.8 µM
c1cc2c[n+](c1)CCCCCCCCCCCCc1ccc[n+](c1)CCCCCCCCCCCC2 [CYCLOSTELLETAMINES A] | 32 µg/mL
c1cc2c[n+](c1)CCCCCCCCCCCCCc1ccc[n+](c1)CCCCCCCCCCCC2 [CYCLOSTELLETAMINES B] | 4 µg/mL
c1cc[n+]2c(c1)CCCCCCCCCCCCC[n+]1cccc(c1)CCCCCCCCCCCCC2 [CYCLOSTELLETAMINES C] | 4 µg/mL
c1cc2c[n+](c1)CCCCCCCCCCCCCCc1ccc[n+](c1)CCCCCCCCCCCC2 [CYCLOSTELLETAMINES D] | 8 µg/mL

SMILES | MIC
c1cc2c[n+](c1)CCCCCCCCCCCCCCc1ccc[n+](c1)CCCCCCCCCCCCC2 [CYCLOSTELLETAMINES E] | 11 µg/mL
c1cc2c[n+](c1)CCCCCCCCCCCCCCc1ccc[n+](c1)CCCCCCCCCCCCCC2 [CYCLOSTELLETAMINES F] | 8 µg/mL
COc1cc(/C=C/C(O)=C/C(=O)/C=C/c2ccc(O)cc2)ccc1O [DEMETHOXYCURCUMIN] | 200 µg/mL
COc1cc(C)c(C(=O)Oc2cc(C)c(C(=O)O)c(O)c2C)c(OC)c1C [DIFFRACTAIC ACID] | 15.6 µg/mL
[C-]#[N+]C(C)(C)C[C@@H]1C[C@H](C)[C@H]2CC[C@H](C)[C@@]3([N+]#[C-])CCC(=C)[C@@H]1[C@H]23 [DIISOCYANOAMPHILECTENE] | 2 µg/mL
CSC1=C(CCNC(C)=O)c2nc3ccccc3c3ccnc(c23)C1=O [DIPLAMINE] | 17 µM
C=C(C)/C=C/[C@@]12C(=O)C=CC(=O)[C@@]13CC(C)=C[C@@H]2c1cc(O)ccc1O3 [EHRETIQUINONE] | 25 µg/mL
O=C1C2=C(C(=O)c3c(O)cccc31)[C@]1(O)C[C@H]2C(=O)c2c(O)cccc21 [ENGELHARQUINONE] | 20 µg/mL
CCc1cc(C(N)=S)ccn1 [ETHIONAMIDE] | 18 µM
CCOC(=O)CCCCCCCCCCCC[C@@H]1C=CCC1 [ETHYL CHAULMOOGRATE] | 9.82 µM
COc1cc(-c2ccc3c(c2)OCO3)nc2ccccc12 [GRAVEOLININE] | 16 µg/mL
CC(C)C1=C(O)C(=O)C2=C(C1=O)[C@H](O)C[C@H]1C(C)(C)CCC[C@]21C [HORMINONE] | 25 µg/mL
Cl.Nc1ncc(C/C=C/NC(=O)c2cc(Br)c[nH]2)[nH]1 [HYMENIDINE] | 6.1 µg/mL
CC(C)=CCc1c(O)ccc(C(=O)/C=C/c2ccc(O)cc2)c1O [ISOBAVACHALCONE] | 18 µg/mL
CSc1cnc2c3c(nc4ccccc4c13)C(CCNC(C)=O)=CC2=O [ISODIPLAMINE] | 17 µM
COc1c2ccoc2nc2c3c(ccc12)OCO3 [KOKUSAGINE] | 16 µg/mL
O=C1c2scnc2-c2nccc3c2c1nc1ccccc13 [KUANONIAMINE A] | 10.7 µM
CC(=O)NCCc1c2c3c(ccnc3c3ncsc13)-c1ccccc1N2 [KUANONIAMINE D] | 34 µM
CC(=O)NCCc1c2c(c3nccc4c3c1Nc1ccccc1-4)OCS2 [LISSOCLINIDINE] | 17 µM
[C-]#[N+][C@@]12CCC(=C)[C@H]3[C@H](CC(C)(C)NC(=O)CN4CCC4=O)C[C@H](C)[C@@H](CC[C@@H]1C)[C@@H]32 [MONAMPHILECTINE A] | 15.3 µg/mL
NC1=N[C@@]23CCCN2C(=O)c2[nH]cc(Br)c2[C@@H]3N1 [MONOBROMOISOPHAKELLIN] | 64 µg/mL
C/C=C(/NC(=O)c1csc(-c2csc(-c3ccc4c(n3)-c3csc(n3)C(C(C)(O)C(C)O)NC(=O)c3csc(n3)C(C(C)C)NC(=O)c3csc(n3)/C(=C/OC)NC(=O)C(C(C)O)NC(=O)c3csc-4n3)n2)n1)C(=O)OC (configuration not stated) [NOCARDITHIOCIN] | 0.025 µg/mL
CCCCCCC1=C(O)CC(CCCCC)OC1=O (configuration not stated) [PSEUDOPYRONINES A] | 3.12 µg/mL
COc1cc2ccc(=O)oc2cc1O [SCOPOLETIN] | 42 µg/mL
CC(=O)NCCc1c2c(c3nccc4c3c1Nc1ccccc1-4)NC(=O)CS2 [SHERMILAMINE B] | 32 µM
C/C=C(C)/C=C(\C)C(O)C(C)[C@H](O)[C@@H](O)[C@H]1C/C=C\C=C\[C@H](O)C[C@@H](O)[C@H](C)c2nc(cs2)/C=C(\CCCCCC)C(=O)O1 (some centres not stated) [THUGGACIN A] | 8 µg/mL
C/C(=C\CO)CCC[C@H](C)CCC[C@H](C)CCCC(C)C [TRANS-PHYTOL] | 12.5 µg/mL

system: Mycobacterium tuberculosis; assay: Antimycobacterial activity against Mycobacterium tuberculosis H37Ra; type: functional; settings: not given

SMILES | MIC [µg/mL]
O=C(/C=C/C=C/CC/C=C/c1ccc2c(c1)OCO2)N1CCCC1 | 25 (≈ 76.8 µM)
COc1cc2oc(C)cc(=O)c2c(O)c1CC=C(C)C | 50 (≈ 182 µM)
CO[C@H]1CC(=O)c2c(O)cccc2[C@H]1O | 12.5 (≈ 60 µM)
COc1cc(O)c2c(c1)[C@H](O)[C@@H](OC)CC2=O | 25 (≈ 105 µM)
COC1=CC(=O)c2c(cc(OC)c(C(C)C3=C(O)C(=O)c4cc(O)cc(O)c4C3=O)c2O)C1=O (configuration not stated) | 6.25 (≈ 13.4 µM)
CCc1c(OC)cc2c(c1O)C(=O)C=C(OC)C2=O | 12.5 (≈ 47.7 µM)
COc1ccc([C@@]23Oc4cc(OC)cc(OC)c4[C@@](O)(C2O)[C@@H](C(=O)NCCCCNC(=O)c2ccccc2)[C@@H]3c2ccccc2)cc1 (some centres not stated) | 25 (≈ 38.3 µM)
CCCC/C=C/C#CC#CC(C)CCCCCCC(=O)O (configuration not stated) | 25 (≈ 86.7 µM)
CCCC/C=C/C#CC#CCCCCCCCC(=O)OCC(O)CO (configuration not stated) | 25 (≈ 71.7 µM)
COc1c(-c2ccc(O)cc2)oc2c3c(ccc2c1=O)OC(C)(C)[C@H](OC(C)=O)[C@@H]3OC(C)=O | 25 (≈ 53.4 µM)
COc1ccc2c(=O)c3c(oc2c1)-c1cc2c(cc1CO3)OCO2 | 6.25 (≈ 19.3 µM)
C=C(C)C(=O)O[C@H]1C[C@@]2(C)OC(=CC2=O)C(=C)[C@H](O)[C@H]2OC(=O)C(=C)[C@@H]21 | 3.1 (≈ 8.6 µM)
C=C1C(=O)O[C@H]2[C@H]1[C@@H](OC(=O)/C(C)=C\C)C[C@@]1(C)OC(=CC1=O)C(=C)[C@@H]2O | 3.1 (≈ 8.28 µM)
C=C1C(=O)O[C@@H]2/C=C(\C(=O)O)CC/C=C(\C)CC[C@@H]12 | 50 (≈ 191 µM)
O=C1CC[C@H](O)c2cc(O)cc(O)c21 | 12.5 (≈ 64.4 µM)
COc1cc2c(cc1OC)-c1c3c(cc4c1[C@@H](C2)NCC4)OCO3 | 12.5 (≈ 38.4 µM)
COc1ccc2c(=O)c(OC)c(-c3ccccc3)oc2c1 [3,7-DIMETHOXYFLAVONE] | 50 (≈ 177 µM)
O=C1C=C[C@@H]2O[C@H](c3ccccc3)[C@@H](O)[C@@H]2O1 [ALTHOLACTONE] | 6.25 (≈ 26.9 µM)
CC(=O)O[C@@H]1C[C@H]2C(C)(C)C(=O)C=C[C@]2(C)[C@H]2CC[C@]3(C)C(=CC(=O)[C@H]3c3ccoc3)[C@@]21C [AZADIRADIONE] | 6.25 (≈ 13.9 µM)
C=C(C)[C@@H]1CC[C@]2(C(=O)O)CC[C@]3(C)[C@H](CC[C@@H]4[C@@]5(C)CC[C@H](O)C(C)(C)[C@@H]5CC[C@]43C)[C@@H]12 [BETULINIC ACID] | 25 (≈ 54.7 µM)
O=C(/C=C/CCCC/C=C/c1ccc2c(c1)OCO2)N1CCCC1 [BRACHYAMIDE B] | 50 (≈ 153 µM)
CC(C)CNC(=O)/C=C/C=C/CCCCCCCC/C=C/c1ccc2c(c1)OCO2 [BRACHYSTAMIDE B] | 50 (≈ 121 µM)
C=C1C(=O)O[C@@H]2/C=C(/CO)C3=CC(=O)[C@@](C)(C[C@H](OC(=O)/C(C)=C\C)[C@@H]12)O3 [CENTRATHERIN] | 3.1 (≈ 8.28 µM)
C/C=C(\C)C(=O)C1=C2C3=COC(/C=C/[C@@H](C)CC)=CC3=C(Cl)C(=O)[C@@]2(C)OC1=O [CHAETOVIRIDIN E] | 50 (≈ 121 µM)
O=Cc1cc2c(cc1O)[nH]c1cc(O)ccc12 [CLAUSINE O] | 25 (≈ 110 µM)
COc1ccc(C/C=C/c2ccc(O)cc2)c(OC)c1O [DALPARVINENE] | 50 (≈ 175 µM)
COc1cc(OC)c(-c2coc3cc(O)cc(O)c3c2=O)cc1O [DALPARVONE] | 50 (≈ 151 µM)
COc1ccc2c(=O)c(OC)c(-c3ccc4c(c3)OCO4)oc2c1 [DEMETHOXYKANUGIN] | 50 (≈ 153 µM)
